The series has as its system common cutworm (Spodoptera litura). Description: Insecticidal effect on common cutworm (Test Example 2). The format is in vivo. To be noted: 50 ppm; cabbage leaf immersed about 30 seconds; second-instar larvae; eight days after the inoculation; 25° C. An excerpt: Insecticidal effect on common cutworm (Spodoptera litura)
A piece of cabbage leaf (cultivar: Shikidori) was immersed for about 30 seconds in a liquid chemical prepared by diluting a preparation containing each compound listed in Table 1 or Table 2, as an active ingredient to adjust the concentration to 50 ppm. After air-drying, the piece was placed in a plastic Petri dish with a diameter of 9 cm and inoculated with second-instar larvae of common cutworm, after which the dish was closed and then allowed to stand in a room thermostated at 25° C. Eight days after the inoculation, the dead and alive were counted and the mortality was calculated according to the following equation, whereby the insecticidal effect was judged according to the criterion shown in Test Example 1. The test was carried out with three replications of 10 insects.
On to `Cc1cc(C(F)(C(F)(F)F)C(F)(F)F)ccc1NC(=O)c1cccc(I)c1C(=O)NC(C)COC(=O)N(C)C` (stereo not shown) [compound 88], for which the “insecticidal activity (mortality rating)” value is reported as “B or higher”.
For `COCCC(C)NC(=O)c1c(I)cccc1C(=O)Nc1ccc(C(F)(C(F)(F)F)C(F)(F)F)cc1C` (stereo not shown) [compound 59] the value was “B or higher”; for `CCNC(=O)OCC(C)NC(=O)c1c(I)cccc1C(=O)Nc1ccc(C(F)(F)C(F)(F)C(F)(F)F)cc1C` (stereo not shown) [compound 272], “B or higher”.
For `CSCCCNC(=O)OCC(C)(C)NC(=O)c1c(I)cccc1C(=O)Nc1ccc(C(F)(C(F)(F)F)C(F)(F)F)cc1C` [compound 184] the value was “B or higher”; for `COC(=O)NCC(C)NC(=O)c1c(I)cccc1C(=O)Nc1ccc(C(F)(C(F)(F)F)C(F)(F)F)cc1C` (stereo not shown) [compound 22], “B or higher”; for `CCN(CC)C(=O)OCC(C)NC(=O)c1c(I)cccc1C(=O)Nc1ccc(C(F)(C(F)(F)F)C(F)(F)F)nc1C` (racemic) [2-32], “B or higher”.
Under `COc1ccc(CNC(=O)OCC(C)NC(=O)c2c(I)cccc2C(=O)Nc2ccc(OC(C(F)(F)F)C(F)(F)F)nc2C)cc1` (racemic) [2-72] stands “B or higher”; under `CC(=O)NCC(C)(C)NC(=O)c1c(I)cccc1C(=O)Nc1ccc(C(F)(C(F)(F)F)C(F)(F)F)cc1C` [compound 28], “B or higher”.
`Cc1cc(C(F)(C(F)(F)F)C(F)(F)F)ccc1NC(=O)c1cccc(I)c1C(=O)NC(C)COC(=O)NC1CC1` (stereo not shown) [compound 133]: the “insecticidal activity (mortality rating)” value was “B or higher”.
For `Cc1cc(OC(F)(F)F)ccc1NC(=O)c1cccc(I)c1C(=O)NC(C)COC(=O)NC1CC1` (stereo not shown) [compound 134] the value was “B or higher”; for `Cc1cc(C(F)(C(F)(F)F)C(F)(F)F)ccc1NC(=O)c1cccc(I)c1C(=O)NC(C)(C)CNC(=O)C1CC1` [compound 29], “B or higher”.
For `Cc1cc(C(F)(C(F)(F)F)C(F)(F)F)ccc1NC(=O)c1cccc(I)c1C(=O)NCC1COC(C)(C)O1` (stereo not shown) [compound 51] the value was “B or higher”; for `COCCNC(=O)OCC(C)(C)NC(=O)c1c(I)cccc1C(=O)Nc1ccc(C(F)(C(F)(F)F)C(F)(F)F)cc1C` [compound 172], “B or higher”.
Under `CCOC(=O)NCC(C)(C)NC(=O)c1c(I)cccc1C(=O)Nc1ccc(C(F)(F)C(F)(F)F)cc1C` [compound 19] stands “B or higher”; under `CCCNC(=O)OCC(C)(C)NC(=O)c1c(I)cccc1C(=O)Nc1ccc(C(F)(C(F)(F)F)C(F)(F)F)cc1C` [compound 129], “B or higher”; under `CCNC(=O)OCC(C)NC(=O)c1c(I)cccc1C(=O)Nc1ccc(OC(C(F)(F)F)C(F)(F)F)nc1C` (racemic) [2-47], “B or higher”.
`CCNC(=O)OCC(C)NC(=O)c1c(I)cccc1C(=O)Nc1ccc(C(F)(C(F)(F)F)C(F)(F)F)nc1Cl` (racemic) [2-39]: the “insecticidal activity (mortality rating)” value was “B or higher”.
For `CCCNC(=O)OCC(C)(C)NC(=O)c1c(I)cccc1C(=O)Nc1ccc(C(F)(C(F)(F)F)C(F)(F)F)cc1Cl` [compound 130] the value was “B or higher”; for `Cc1cc(C(F)(C(F)(F)F)C(F)(F)F)ccc1NC(=O)c1ccc(Cl)c(Cl)c1C(=O)NC(C)COC(=O)NCc1ccccc1` (stereo not shown) [compound 229], “B or higher”.
As for `CNC(=O)OCC(C)(C)NC(=O)c1c(I)cccc1C(=O)Nc1ccc(C(F)(C(F)(F)F)C(F)(F)F)nc1C` [2-35], the “insecticidal activity (mortality rating)” value is “B or higher”.
With `Cc1cc(C(F)(C(F)(F)F)C(F)(F)F)ccc1NC(=O)c1cccc(I)c1C(=O)NC(C)CCOCC(C)C` (stereo not shown) [compound 74], the “insecticidal activity (mortality rating)” value is “B or higher”.
Regarding `CCNC(=O)OCC(C)NC(=O)c1c(I)cccc1C(=O)Nc1ccc(C(OCC)(C(F)(F)F)C(F)(F)F)cc1C` (stereo not shown) [compound 279], the “insecticidal activity (mortality rating)” value is “B or higher”.

These data come from patent US7256192B2, “Aromatic diamide derivatives, chemicals for agricultural or horticultural use and usage thereof” (Nihon Nohyaku Co., Ltd., priority 1999, dated 2007).
